{"source": "paper PMC12605013", "about": "“SAG1.3-derived Frizzled-targeting small-molecule compounds” (The Journal of Biological Chemistry, 2025)", "key": {"FZD5–DEP–Clamp sensor": {"test_system": "FZD5–DEP–Clamp sensor", "test": "FZD5–DEP–Clamp BRET sensor in stably expressing HEK293A cells", "format": "cell-based, human", "protocol": "To generate the stable FZD5–DEP–Clamp cell line, HEK293A cells were seeded at a density of 500,000 cells/well in a 6-well plate. On the next day, the adherent cells were transfected with 2 μg of FZD5–DEP–Clamp (TK) plasmid using PEI as the transfection reagent. After 2 days of transfection, cells were detached and transferred to a 75 cm^2 flask. Stably transfected cells were selected using complete medium (DMEM + 10% fetal calf serum + 1% penicillin–streptomycin) supplemented with 2000 μg/ml G-418 sulfate (Gibco; catalog no.: 10131027) for 3 weeks. After obtaining stable growth, cell culture of the stable cell line was continued with 500 μg/ml G-418.\nFor kinetic experiments with the FZD5–DEP–Clamp sensor, BRET values were first baseline-corrected for every well separately by subtracting the average of the first three reads prior ligand addition. Afterward, the average values for vehicle-containing wells were subtracted for every timepoint to get access to actual ligand-induced changes in BRET ratio (ΔBRET values).\nFigure S4. […] (A) Shown is the BRET time-course recorded upon addition of 30 µM compound 11 or vehicle (DMSO). […] The cell surface pool of transiently-transfected HiBiT-FZD5 (B) and HiBiT-FZD6 (C) was assessed by addition of recombinant LgBiT in combination with detection of NanoBiT luminescence. […]"}, "[1]": {"biological_target": "T1, firefly luciferase (Fluc) (Photinus pyralis, UniProt P08659)", "T1 construct": "expressed in transfected cells; host or cells: HEK293 cells", "T1 sequence (P08659 whole entry)": "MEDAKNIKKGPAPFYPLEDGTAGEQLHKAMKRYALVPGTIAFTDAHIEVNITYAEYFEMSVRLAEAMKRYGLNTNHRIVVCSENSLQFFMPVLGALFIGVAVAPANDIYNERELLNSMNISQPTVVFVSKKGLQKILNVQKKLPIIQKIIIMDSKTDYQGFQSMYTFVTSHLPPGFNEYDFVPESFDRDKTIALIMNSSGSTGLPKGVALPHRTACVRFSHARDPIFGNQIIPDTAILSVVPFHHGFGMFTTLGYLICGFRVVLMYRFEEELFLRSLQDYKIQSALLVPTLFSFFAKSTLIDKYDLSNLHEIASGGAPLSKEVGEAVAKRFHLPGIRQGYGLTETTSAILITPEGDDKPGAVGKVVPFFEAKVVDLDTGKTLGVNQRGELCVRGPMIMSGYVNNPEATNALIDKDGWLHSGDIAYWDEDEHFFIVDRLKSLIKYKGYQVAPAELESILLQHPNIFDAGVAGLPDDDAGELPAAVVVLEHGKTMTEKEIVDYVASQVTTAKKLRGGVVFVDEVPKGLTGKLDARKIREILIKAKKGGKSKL", "test": "Fluc counter assay (CMV-driven recombinant Fluc in HEK293 cells)", "format": "cell-based", "details": "counter assay for readout interference", "protocol": "Figure S3. […] Experiments were performed in HEK293 cells."}, "human FZD5": {"test_system": "human FZD5", "test": "TOPFlash reporter gene assay in ΔFZD1–10 HEK293T cells transfected with HiBiT-FZD5", "format": "cell-based"}, "Nluc-FZD4": {"biological_target": "T2, Nluc-FZD4 (Homo sapiens, UniProt Q9ULV1)", "T2 construct": "expressed in transfected cells; host or cells: ΔFZD1–10 HEK293T cells", "T2 sequence (Q9ULV1 37-537)": "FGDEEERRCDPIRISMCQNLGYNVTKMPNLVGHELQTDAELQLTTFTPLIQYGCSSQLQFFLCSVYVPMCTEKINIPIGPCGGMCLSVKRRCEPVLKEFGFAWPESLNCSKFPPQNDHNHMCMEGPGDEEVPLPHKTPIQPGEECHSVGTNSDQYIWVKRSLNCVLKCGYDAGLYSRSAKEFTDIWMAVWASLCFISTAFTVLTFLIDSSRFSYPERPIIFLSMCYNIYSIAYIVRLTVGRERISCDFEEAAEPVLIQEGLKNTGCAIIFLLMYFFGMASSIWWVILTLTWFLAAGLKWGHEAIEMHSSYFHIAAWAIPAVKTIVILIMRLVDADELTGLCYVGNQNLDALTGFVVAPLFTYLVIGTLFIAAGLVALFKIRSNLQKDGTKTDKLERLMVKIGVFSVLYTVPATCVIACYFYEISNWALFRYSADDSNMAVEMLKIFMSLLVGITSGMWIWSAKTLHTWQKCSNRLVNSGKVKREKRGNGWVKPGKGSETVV", "test": "BRET-based BODIPY-cyclopamine competition binding at Nluc-FZD4", "details": "BODIPY-cyclopamine 200 nM; ΔFZD1-10 HEK293T cells; read-out: pIC50 (11) mean ± SEM, Nluc-FZD4 (converted)", "protocol": "(§1) After 24 h, cells were washed once with Hanks' balanced salt solution (HBSS), followed by the addition of 80 μl of HBSS. Next, 10 μl of the competitive ligand, that is, the tested SAG1.3 derivative (either in different concentrations for the concentration–response curves or at a final concentration of 10 μM for the first screens) and 10 μl of the fluorescent tracer BODIPY–cyclopamine (final concentration: 300 nM for the first screens, 200 nM for the concentration–response experiments) were added. All serial dilutions were prepared in HBSS. The cells were incubated for 90 min at 37 °C without additional CO2, after which 10 μl of luciferase substrate diluted in HBSS (furimazine; Promega, N1572, final dilution: 1:1000 for first screening) and coelenterazine h (Biosynth; final concentration: 5 μM for concentration–response experiments) were added to the cells. Following a 10 min incubation period in the dark, the measurement was started on a BMG Labtech ClarioStar or TECAN Spark multimode microplate reader, prewarmed to 37 °C. Nluc bioluminescence was detected between 460 and 490 nm (ClarioStar) or 460 and 500 nm (TECAN Spark). The emission of the fluorescent tracer was detected between 520 and 550 nm (ClarioStar) or between 520 and 560 nm (TECAN Spark). […]"}, "Nluc-FZD7": {"biological_target": "T3, Nluc-FZD7 (Homo sapiens, UniProt O75084)", "T3 construct": "expressed in transfected cells; host or cells: ΔFZD1–10 HEK293T cells", "test": "BRET-based BODIPY-cyclopamine competition binding at Nluc-FZD7", "details": "BODIPY-cyclopamine 200 nM; ΔFZD1-10 HEK293T cells; read-out: pIC50 (11) mean ± SEM, Nluc-FZD7 (converted)", "protocol": "as §1"}}, "note": "pIC50: −log10 of the molar value. Like-named read-outs stand apart in the source and are kept apart here."}
{"smiles": "CC(=O)Nc1cccc(C(=O)NC2CCC(N(Cc3cccc(-c4ccncc4)c3)C(=O)c3sc4ccccc4c3Cl)CC2)c1", "note": "(stereo not drawn) [compound 11, N-((1r,4r)-4-(3-Acetamidobenzamido)cyclohexyl)-3-chloro-N-(3-(pyridin-4-yl)benzyl)benzo[b]thiophene-2-carboxamide]", "values": [{"measurement": "Effect on WNT-induced FZD5–DEP–Clamp response", "setting": "FZD5–DEP–Clamp sensor; 500 ng/ml high-purity WNT-3A with 30 μM compound", "result": "able to interfere with the WNT-induced effects"}, {"measurement": "BRET response of FZD5–DEP–Clamp, compound alone", "setting": "FZD5–DEP–Clamp sensor; 30 µM compound, agonist mode", "result": "did not elicit a robust change in BRET response"}, {"measurement": "Interference with Fluc bioluminescence", "setting": "[1]", "result": "interferes with Fluc bioluminescence"}, {"measurement": "pIC50", "setting": "human FZD5; Homo sapiens, HEK-293T, 300 ng/ml WNT-3A, HiBiT-FZD5, equal to the pIC50, read-out: IC50, inhibition of WNT-3A-induced TOPFlash response", "result": 5.92}, {"measurement": "IC50", "setting": "human FZD5; Homo sapiens, HEK-293T, 300 ng/ml WNT-3A, HiBiT-FZD5, read-out: pIC50, inhibition of WNT-3A-induced TOPFlash response (converted)", "result": 1200, "unit": "nM"}, {"measurement": "Effect on WNT surrogate-induced TOPFlash signal", "setting": "human FZD5; WNT surrogate 250 pM, coaddition of compound", "result": "could also be blocked"}, {"measurement": "TOPFlash response to compound alone", "setting": "human FZD5; absence of added WNT-3A", "result": "not inducing any effect"}, {"measurement": "IC50", "setting": "Nluc-FZD4", "result": 955, "unit": "nM"}, {"measurement": "IC50", "setting": "Nluc-FZD7", "result": 891, "unit": "nM"}]}
